The values that follow come from patent US11612604B2, “Methods of treating cancer with PLK4 inhibitors” (LUDWIG INSTITUTE FOR CANCER RESEARCH LTD, priority 2017, dated 2023).

The experiment deals with T1, PLK4 (Homo sapiens, UniProt O00444).
T1 sequence (O00444 1-970): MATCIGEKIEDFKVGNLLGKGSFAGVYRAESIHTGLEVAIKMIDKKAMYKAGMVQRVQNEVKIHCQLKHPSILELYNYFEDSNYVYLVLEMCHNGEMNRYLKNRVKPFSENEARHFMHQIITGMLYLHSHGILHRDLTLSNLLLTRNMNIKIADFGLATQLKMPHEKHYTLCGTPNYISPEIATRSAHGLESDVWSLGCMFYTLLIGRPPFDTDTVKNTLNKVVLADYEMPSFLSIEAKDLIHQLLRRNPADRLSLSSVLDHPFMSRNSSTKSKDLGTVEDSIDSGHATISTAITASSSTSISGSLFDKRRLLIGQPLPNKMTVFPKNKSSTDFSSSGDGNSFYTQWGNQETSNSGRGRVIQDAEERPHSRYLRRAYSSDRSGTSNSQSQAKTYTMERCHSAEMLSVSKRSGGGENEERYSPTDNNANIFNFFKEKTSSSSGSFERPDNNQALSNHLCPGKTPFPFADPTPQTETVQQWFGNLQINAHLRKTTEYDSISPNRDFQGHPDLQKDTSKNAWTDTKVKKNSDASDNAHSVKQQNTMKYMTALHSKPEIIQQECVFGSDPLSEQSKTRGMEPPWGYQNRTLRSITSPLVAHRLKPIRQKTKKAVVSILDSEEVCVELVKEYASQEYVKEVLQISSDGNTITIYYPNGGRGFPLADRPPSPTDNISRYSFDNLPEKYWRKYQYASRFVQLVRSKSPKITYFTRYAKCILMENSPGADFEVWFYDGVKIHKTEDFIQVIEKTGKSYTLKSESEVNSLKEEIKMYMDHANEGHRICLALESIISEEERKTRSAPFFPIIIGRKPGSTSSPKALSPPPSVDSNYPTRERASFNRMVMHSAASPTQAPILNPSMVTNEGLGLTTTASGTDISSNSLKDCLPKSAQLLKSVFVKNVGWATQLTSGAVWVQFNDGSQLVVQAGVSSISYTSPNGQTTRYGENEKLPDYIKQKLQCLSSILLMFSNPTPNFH
In words: Activity (IC50) of the Table 1 compounds as PLK4 inhibitors. It is filed as biochemical. The following applies: Table 1, IC50 class.

The IC50 is the concentration at which inhibition is half-maximal. With `Cc1cc(Nc2nc(Sc3ccc(NC(=O)C4CC4)cc3)nc(N3CCN(C)CC3)c2C)n[nH]1`, the IC50 is under 100 nM.
Next, `CNc1nc(Sc2ccc(NC(=O)C3CC3)cc2)nc(Nc2cc(C)[nH]n2)c1C`: under 100 nM.
Next, `CCNc1nc(Sc2ccc(NC(=O)C3CC3)cc2)nc(Nc2cc(C)[nH]n2)c1C`: under 100 nM; `CCCC(=O)Nc1ccc(Sc2nc(Nc3cc(C)[nH]n3)c(C)c(N3CCN(C)CC3)n2)cc1`: under 100 nM; `Cc1cc(Nc2nc(Sc3ccc(NC(=O)C4CC4)cc3)nc(NC(C)C)c2C)n[nH]1`: under 100 nM.
Compound `CCN(C)c1nc(Sc2ccc(NC(C)=O)cc2)nc(Nc2cc(C)[nH]n2)c1C` gave an IC50 of under 100 nM.
With `COc1c(Nc2cc(C)[nH]n2)nc(Sc2ccc(NC(C)=O)cc2)nc1N1CCC(CCN2CCOCC2)CC1` the figure was under 100 nM; with `COc1c(Nc2cc(C)[nH]n2)nc(Sc2ccc(NC(C)=O)cc2)nc1NC1CCNCC1`, under 100 nM; with `CCc1cc(Nc2nc(SC)nc(N3CCN(CCN(C)C)CC3)c2OC)n[nH]1`, under 100 nM.
For `CCc1cc(Nc2nc(SC)nc(N3CCN(CCN(C)C)CC3)c2C)n[nH]1`, the IC50 was under 100 nM.
With `COc1c(Nc2cc(C)[nH]n2)nc(Sc2ccc(NC(C)=O)nc2)nc1N1CCOCC1` the figure was under 100 nM.
For `COc1c(Nc2cc(C)[nH]n2)nc(Sc2ccc(S(=O)(=O)C(C)(C)c3ncc[nH]3)cc2)nc1N1CCN(CCN(C)C)CC1`, the IC50 is under 100 nM.
As for `COc1c(Nc2cc(C)[nH]n2)nc(Sc2ccc(S(=O)(=O)C(C)(C)c3cccc([N+](=O)[O-])c3F)cc2F)nc1N1CCC(C(N)=O)CC1`, the half-maximal inhibitory concentration (IC50) is under 100 nM.
In turn, `COc1c(Nc2cc(C)[nH]n2)nc(Sc2ccc(S(=O)(=O)C(C)(C)c3cccc([N+](=O)[O-])c3F)cc2F)nc1N1CCN(C(C)=O)CC1` displayed an IC50 of under 100 nM.
With `COc1c(Nc2cc(C)[nH]n2)nc(Sc2ccc(S(=O)(=O)C(C)(C)c3cccc([N+](=O)[O-])c3F)cc2F)nc1N1CCC(C(=O)N(C)C)CC1` the figure was under 100 nM; with `COc1c(Nc2cc(C)[nH]n2)nc(Sc2ccc(S(=O)(=O)C(C)(C)c3c(F)c(F)cc(F)c3F)cc2F)nc1N1CCC(CCNC(C)=O)CC1`, under 100 nM; with `COc1c(Nc2cc(C)[nH]n2)nc(Sc2ccc(S(=O)(=O)C(C)(C)c3c(F)c(F)cc(F)c3F)cc2F)nc1N1CCC(CCN)CC1`, under 100 nM.
For `COc1c(Nc2cc(C)[nH]n2)nc(Sc2ccc(S(=O)(=O)C3(c4cccc([N+](=O)[O-])c4F)CC3)cc2F)nc1N1CCN(CCNC(C)=O)CC1`, the IC50 is under 100 nM.
Take `COc1c(Nc2cc(C)[nH]n2)nc(Sc2ccc(S(=O)(=O)C(C)(C)c3c(F)c(F)cc(F)c3F)cc2F)nc1N1CCN(C(C)=O)CC1`: the IC50 is under 100 nM.
`COc1c(Nc2cc(C)[nH]n2)nc(Sc2ccc(S(=O)(=O)Cc3cccc([N+](=O)[O-])c3F)cc2F)nc1N1CCC(NC(C)=O)CC1` showed an IC50 of under 100 nM.
Consider `COc1c(Nc2cc(C)[nH]n2)nc(Sc2ccc(S(=O)(=O)C3(c4cccc([N+](=O)[O-])c4F)CC3)cc2F)nc1N1CCC(CN(C)C)CC1`, for which the IC50 is under 100 nM.
`COc1c(Nc2cc(C)[nH]n2)nc(Sc2ccc(S(=O)(=O)C3(c4cccc([N+](=O)[O-])c4F)CC3)cc2F)nc1N1CCC(C(N)=O)CC1` yielded an IC50 of under 100 nM.
Turning to `COc1c(Nc2cc(C)[nH]n2)nc(Sc2ccc(S(=O)(=O)C(C)(C)c3c(F)c(F)cc(F)c3F)cc2F)nc1N1CCC(N)C1` (centres unmarked), the IC50 is under 100 nM.
Take `COc1c(Nc2cc(C)[nH]n2)nc(Sc2ccc(S(=O)(=O)C(C)(C)c3c(F)c(F)cc(F)c3F)cc2F)nc1N1CCC(N)CC1`: the IC50 was under 100 nM.
`COc1c(Nc2cc(C)[nH]n2)nc(Sc2ccc(S(=O)(=O)C(C)(C)c3cccc([N+](=O)[O-])c3F)cc2F)nc1N1CCC(N)C1` (centres unmarked) had an IC50 of under 100 nM.
As for `COc1c(Nc2cc(C)[nH]n2)nc(Sc2ccc(S(=O)(=O)Cc3cccc([N+](=O)[O-])c3F)cc2F)nc1N1CCC(CC(N)=O)CC1`, the IC50 was under 100 nM.
`COc1c(Nc2cc(C)[nH]n2)nc(Sc2ccc(S(=O)(=O)Cc3cccc([N+](=O)[O-])c3F)cc2F)nc1N1CCC(CCNC(C)=O)CC1` came in with an IC50 of under 100 nM.
With `COc1c(Nc2cc(C)[nH]n2)nc(Sc2ccc(S(=O)(=O)C3(c4c(F)c(F)cc(F)c4F)CC3)cc2F)nc1N1CCOCC1` the figure was under 100 nM.
For `COc1c(Nc2cc(C)[nH]n2)nc(Sc2ccc(S(=O)(=O)C(C)(C)c3cccc([N+](=O)[O-])c3F)cc2F)nc1N1CCC(NC(=O)C(F)(F)F)CC1`, the IC50 is under 100 nM.
In turn, `COc1c(Nc2cc(C)[nH]n2)nc(Sc2ccc(S(=O)(=O)C(C)(C)c3c(F)c(F)cc(F)c3F)cc2F)nc1N1CCC(CC(N)=O)CC1` returned an IC50 of under 100 nM.
Turning to `COc1c(Nc2cc(C)[nH]n2)nc(Sc2ccc(S(=O)(=O)C(C)(C)c3c(F)c(F)cc(F)c3F)cc2F)nc1N1CCC(CN)CC1`, the IC50 is under 100 nM.
Next, `COc1c(Nc2cc(C)[nH]n2)nc(Sc2ccc(S(=O)(=O)C3(c4cccc([N+](=O)[O-])c4F)CC3)cc2F)nc1N1CCC(CCN(C)C)CC1`: under 100 nM; `COc1c(Nc2cc(C)[nH]n2)nc(Sc2ccc(S(=O)(=O)C3(c4cccc([N+](=O)[O-])c4F)CC3)cc2F)nc1N1CCOCC1`: under 100 nM.
Take `COc1c(Nc2cc(C)[nH]n2)nc(Sc2ccc(S(=O)(=O)C3(c4cccc([N+](=O)[O-])c4F)CC3)cc2F)nc1N1CCN(CCN(C)C)CC1`: the IC50 was under 100 nM.
As to `COc1c(Nc2cc(C)[nH]n2)nc(Sc2ccc(S(=O)(=O)C3(c4cccc([N+](=O)[O-])c4F)CC3)cc2F)nc1N1CCC(CC(N)=O)CC1`, the IC50 was under 100 nM.
The compound `COc1c(Nc2cc(C)[nH]n2)nc(Sc2ccc(S(=O)(=O)C3(c4cccc([N+](=O)[O-])c4F)CC3)cc2F)nc1N1CCC(NC(C)=O)CC1` showed an IC50 of under 100 nM.
The compound `COc1c(Nc2cc(C)[nH]n2)nc(Sc2ccc(S(=O)(=O)C(C)(C)c3c(F)c(F)cc(F)c3F)cc2F)nc1N1CCNCC1` came in with an IC50 of under 100 nM.
In turn, `COc1c(Nc2cc(C)[nH]n2)nc(Sc2ccc(S(=O)(=O)C3(c4cccc([N+](=O)[O-])c4F)CC3)cc2F)nc1N1CCC(NC(=O)C(F)(F)F)CC1` returned an IC50 of under 100 nM.
In the case of `COc1c(Nc2cc(C)[nH]n2)nc(Sc2ccc(S(=O)(=O)C3(c4cccc([N+](=O)[O-])c4F)CC3)cc2F)nc1N1CCC(C(=O)N(C)C)CC1`, the IC50 is under 100 nM.
With `COc1c(Nc2cc(C)[nH]n2)nc(Sc2ccc(S(=O)(=O)C3(c4cccc([N+](=O)[O-])c4F)CC3)cc2F)nc1N1CCNCC1`, the IC50 was under 100 nM.
With `COc1c(Nc2cc(C)[nH]n2)nc(Sc2ccc(S(=O)(=O)C3(c4cccc([N+](=O)[O-])c4F)CC3)cc2F)nc1N1CCC(N)CC1`, the IC50 was under 100 nM.
As for `COc1c(Nc2cc(C)[nH]n2)nc(Sc2ccc(S(=O)(=O)C3(c4cccc([N+](=O)[O-])c4F)CC3)cc2F)nc1N1CCC(CN)CC1`, the IC50 is under 100 nM.
For `COc1c(Nc2cc(C)[nH]n2)nc(Sc2ccc(S(=O)(=O)C(C)(C)c3cccc([N+](=O)[O-])c3F)cc2F)nc1N1CCC(CCNC(=O)C(F)(F)F)CC1`, the IC50 was under 100 nM.
Regarding `COc1c(Nc2cc(C)[nH]n2)nc(Sc2cccc(NC(C)=O)c2)nc1N1CCN(CCN(C)C)CC1`, the IC50 is under 100 nM.
Compound `COc1c(Nc2cc(C)[nH]n2)nc(Sc2cccc(NC(C)=O)c2)nc1N1CCOCC1` showed a half-maximal inhibitory concentration (IC50) of under 100 nM.
On to `COc1c(Nc2cc(C)[nH]n2)nc(Sc2ccc(NC(C)=O)cc2)nc1N1CCN(CC(=O)N2CCOCC2)CC1`, for which the IC50 is under 100 nM.
Next, `COc1c(Nc2cc(C)[nH]n2)nc(Sc2ccc(NC(C)=O)cc2)nc1N1CCN(CC(=O)C2CCCCC2)CC1`: under 100 nM.
`Cc1cc(Nc2nc(Sc3ccc([N+](=O)[O-])cc3)nc3c2CCC32CCN(C(=O)C(C)(C)C)CC2)n[nH]1` came in with a 50% inhibitory concentration (IC50) of under 100 nM.
With `Cc1cc(Nc2nc(Sc3ccc([N+](=O)[O-])cc3)nc3c2CCC32CCNCC2)n[nH]1` the figure was 100 to 1000 nM; with `CC(=O)Nc1ccc(Sc2nc(Nc3cc(C)[nH]n3)c3c(n2)C2(CC3)CCN(C(=O)C(C)(C)C)CC2)cc1`, under 100 nM; with `COc1c(Nc2cc(C)[nH]n2)nc(Sc2ccc([N+](=O)[O-])cc2)nc1N1CCN(CCN(C)C)CC1`, under 100 nM.
In the case of `COc1c(Nc2cc(C)[nH]n2)nc(Sc2ccc(NC(C)=O)cc2)nc1C1=CCNCC1`, the IC50 is under 100 nM.
For `COc1c(Nc2cc(C)[nH]n2)nc(Sc2ccc(NC(C)=O)cc2)nc1N1CCN(CCN(C)C)C(C)C1` (centres unmarked), the IC50 is under 100 nM.
For `COc1c(Nc2cc(C)[nH]n2)nc(Sc2ccc(NC(C)=O)cc2)nc1C1=CCN(CC(=O)N(C)C)CC1`, the 50% inhibitory concentration (IC50) is under 100 nM.
With `COc1c(Nc2cc(C)[nH]n2)nc(Sc2ccc(NC(C)=O)cc2)nc1C1=CCN(CCN(C)C)CC1` the figure was under 100 nM.
With `COc1c(Nc2cc(C)[nH]n2)nc(Sc2ccc(NC(C)=O)cc2)nc1N1CCN(CCN(C)C)CC1C` (centres unmarked) the figure was under 100 nM.
